Results taken from patent publication US20060141486A1, “Porous substrates and arrays comprising the same” (priority 2004, published 2006).

What was measured:
Experiment in all cases: GPCR array binding assay on flow-through microplate with GAPS porous substrate
[1] = biological target: T1, human muscarinic receptor subtype 1 (M1) (Homo sapiens, UniProt P11229)
T1 sequence (P11229 1-460): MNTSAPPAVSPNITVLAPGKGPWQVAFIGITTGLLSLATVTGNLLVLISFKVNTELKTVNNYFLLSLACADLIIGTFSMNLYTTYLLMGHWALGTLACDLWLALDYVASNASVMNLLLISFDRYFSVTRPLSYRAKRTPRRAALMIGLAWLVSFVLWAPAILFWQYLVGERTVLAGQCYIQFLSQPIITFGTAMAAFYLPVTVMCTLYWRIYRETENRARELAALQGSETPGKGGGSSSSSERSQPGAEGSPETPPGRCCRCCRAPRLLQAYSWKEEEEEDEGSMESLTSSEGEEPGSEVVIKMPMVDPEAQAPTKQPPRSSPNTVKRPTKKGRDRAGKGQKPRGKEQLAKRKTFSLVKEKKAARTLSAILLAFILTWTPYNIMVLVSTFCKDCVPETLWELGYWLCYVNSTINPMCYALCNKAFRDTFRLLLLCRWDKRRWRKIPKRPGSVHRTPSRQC
Procedure: (§1) 96 patches of silica-based porous substrate (GAPS™, Corning Inc.) were screen printed onto a 1737 glass support plate, and sintered at 695° C. The glass support was pre-fabricated by sand blasting to generate 192 microchannels. Under each porous patch, there are two microchannels which provide access to the porous patch from the opposite side of the glass support. Human muscarinic receptor subtype 1 (M1), delta opioid receptor subtype 2 (delta2), and muscarinic receptor subtype 2 (M2) were printed onto the GAPS™-porous substrate with a configuration such that each receptor was aligned in one column with four replicates (i.e., columns 1, 2 and 3 for M1, delta2 and M2 receptors, respectively; see FIG. 4A). […] After one hour incubation, a vacuum force was applied to remove the assay solution and the sequential washing solution before the array was finally being dried.

[2] = biological target: T2, human muscarinic receptor subtype 2 (M2) (Homo sapiens, UniProt P08172)
T2 sequence (P08172 1-466): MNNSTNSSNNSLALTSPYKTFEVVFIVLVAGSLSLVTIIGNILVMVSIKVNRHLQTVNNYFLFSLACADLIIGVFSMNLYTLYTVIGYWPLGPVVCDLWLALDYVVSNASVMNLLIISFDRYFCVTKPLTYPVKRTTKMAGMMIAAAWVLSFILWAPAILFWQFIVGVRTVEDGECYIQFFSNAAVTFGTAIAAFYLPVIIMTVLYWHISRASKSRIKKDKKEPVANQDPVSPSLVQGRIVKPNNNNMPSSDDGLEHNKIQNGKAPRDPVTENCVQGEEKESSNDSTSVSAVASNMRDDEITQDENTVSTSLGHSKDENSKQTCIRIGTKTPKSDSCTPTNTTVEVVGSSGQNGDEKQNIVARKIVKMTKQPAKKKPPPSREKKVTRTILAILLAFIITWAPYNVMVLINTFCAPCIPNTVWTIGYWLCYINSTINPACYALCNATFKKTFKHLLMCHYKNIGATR
Procedure: as §1

[3] = biological target: human delta opioid receptor subtype 2 (delta2) (Homo sapiens, UniProt P41143); details: 4 nM Cy5-naltrexone in cocktail of labeled ligands, one hour incubation, FIG. 4A
human delta opioid receptor subtype 2 (delta2), sequence (P41143 whole entry): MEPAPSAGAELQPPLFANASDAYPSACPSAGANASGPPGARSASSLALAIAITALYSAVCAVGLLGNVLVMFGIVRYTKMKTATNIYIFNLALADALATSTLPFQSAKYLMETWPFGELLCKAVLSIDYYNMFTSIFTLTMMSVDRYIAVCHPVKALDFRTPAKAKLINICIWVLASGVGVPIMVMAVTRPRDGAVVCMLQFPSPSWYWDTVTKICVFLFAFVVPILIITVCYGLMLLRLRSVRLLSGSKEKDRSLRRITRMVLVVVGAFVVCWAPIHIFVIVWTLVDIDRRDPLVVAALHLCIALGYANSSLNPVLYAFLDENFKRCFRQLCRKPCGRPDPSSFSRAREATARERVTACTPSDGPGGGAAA
Procedure: as §1

[4] = unlabeled telenzepine 2 μM (with naltrexone 4 μM), FIG. 4B
[5] = 2 nM Cy3B-telenzepine in cocktail of labeled ligands, one hour incubation, FIG. 4A

Molecule: Cc1scc2c1N(C(=O)CN1CCN(C)CC1)c1ccccc1NC2=O [telenzepine]
- inhibition of Cy3B-telenzepine binding to M1 receptor by unlabeled compound [1, 4]: inhibited
- inhibition of Cy3B-telenzepine binding to M2 receptor by unlabeled compound [2, 4]: inhibited

Molecule: Cy3B-telenzepine
- binding of labeled ligand to M1 receptor microspots (fluorescence) [1, 5]: strong binding
- binding of labeled ligand to M2 receptor microspots (fluorescence) [2, 5]: Weak binding signals

Molecule: Cy5-naltrexone
- binding of labeled ligand to delta2 receptor microspots (fluorescence) [3]: strong binding
